Source: patent US5756121A, “Antibiotic formulation and use for drug resistant infections” (NeXstar Pharmaceuticals, Inc., priority 1995, dated 1998)
Several values for one entry are separate records, joined by “and”; a condition that tells them apart may be missing. Equal entries are not always repeated.

Key:
[1] = tested on: M. tuberculosis, drug susceptible strain H37RV; test: Activity against drug susceptible TB in infected human monocyte-derived macrophages; assay type: cell-based, Mycobacterium tuberculosis (in human macrophages); conditions: for CFU: duplicate values
[2] = tested on: Pseudomonas aeruginosa; test: Efficacy and toxicity in Pseudomonas infected mice (mortality); assay type: in vivo, Pseudomonas aeruginosa (clinical isolate) in CF-1 mice
Method: The efficacy and toxicity of liposomal amikacin in Pseudomonas infected mice was tested. CF-1 mice were used (females, 6-8 weeks old). The mice were obtained from Jackson Labs. A clinical isolate of Pseudomonas aeruginosa was obtained on a Mueller Hinton/MacConkey blood agar plate. The organisms were transferred to a Mueller Hinton plate and grown for 24 hours. Colonies were transferred to saline and grown for 48 hours. The samples were frozen in saline containing 15% fetal calf serum at 1×10^8 organisms/ml (MacFarland Standard). The colonies were stored at -70° C. The colonies were thawed and grown in a Mueller Hinton plate for 24 hours. The bacteria were adjusted to 8×10^6 organisms/ml in saline containing talc (62.5 mg/ml) and 1 ml was injected intraperitoneal. A culture of inoculum on MH agar for 24 hours determined that approximately 7×10^6 cfu were delivered per mouse. Liposomal amikacin and empty liposomes were prepared as set out in Example 2. […] The lipid concentration was 95.31 mg/ml and the amikacin concentration was 23.54 mg/ml (0.25 drug/lipid ratio). The pH of the solution containing the formulation was 7.31. […] The concentration of the free amikacin solution was 23.54 mg/ml. The pH of the solution containing the liposomes was 7.33.
Mice were treated with 40 mg/kg (drug per body-weight), 80 mg/kg, 120 mg/kg and 240 mg/kg of liposomal amikacin. Mice were also treated with 40 mg/kg, 80 mg/kg, and 120 mg/kg of free amikacin. The drugs were administered intravenously in the caudal vein. Two doses were given; one at four hours after infection and one at twenty-four hours after infection.

[3] = in vivo; design: species or system mouse (C57B1/6); conditions: mouse
Method: Amikacin content was measured in mouse (C57B1/6, females 2-3 months old) plasma after injection (i.v.) of free amikacin or liposomal amikacin (100 mg/kg). Liposomal amikacin was prepared as described in Example 2. Blood samples were obtained at various time intervals. The samples were collected by removing 100 microliters of blood, retroorbitally, from nonanesthetized mice. The samples were collected in heparinized capillary pipets which were plugged with modeling clay. The samples were centrifuged at 3250 rpm (20 cm rotor) for 10 minutes. The samples were analyzed using a radioimmunoassay (Diagnostic Products). The liposomal amikacin formulation contained liposomes with an average size of 43.6 nm (median diameter). The amikacin concentration was 10.09 mg/ml and the total lipid concentration was 56.8 mg/ml (drug to lipid ratio […]).

[4] = mice, 150 mg/kg; known in the art; cited from earlier work
[5] = tested on: MAC (101, type 1); test: Treatment of MAC-infected beige mice, first experiment (organism burden in spleen, liver, lung); assay type: in vivo
Method: The testing of liposome encapsulated amikacin for the treatment of MAC was performed using a murine model. Beige mice (C57B1/6bg^j /bg^j) were infected with MAC (101, type 1). The mice were infected by injection of 1×10^7 Colony Forming Units (cfu) in the mouse tail vein (i.v.). Three experiments were performed. In the first experiment, 40, 80 and 120 milligrams of amikacin (liposomal and free) per kilogram of mouse body-weight was given i.v. daily for 5 days, beginning 7 days after infection. The animals were sacrificed 5 days after treatment was completed and the liver, lung and spleen tissue were plated. Quantitation of organisms in liver, spleen and lung tissue was performed. The cfu were determined by growth on Middlebrook 7h11 agar plates. Untreated and empty liposomes were used as controls.
The liposomes were prepared as in Example 1. This experiment was performed in two identical parts. The liposomes in the first part were of an average size of 49.8 nm and the average size of the liposomes in the second part were 73.7 nm (mean diameter). The amikacin concentration was either 15.0 mg/ml or 13.21 mg/ml and the total lipid concentration was either 121 mg/ml or 55.7 mg/ml respectively (drug to lipid ratios: 0.123, 0.24). Free drug for all experiments was prepared in the same buffer that the liposomal formulations were contained in.

Compound: NCC[C@H](O)C(=O)N[C@@H]1C[C@H](N)[C@@H](O[C@H]2O[C@H](CN)[C@@H](O)[C@H](O)[C@H]2O)[C@H](O)[C@H]1O[C@H]1O[C@H](CO)[C@@H](O)[C@H](N)[C@H]1O [amikacin]
- inhibition / killing of drug susceptible bacteria (in words) ([1]; 1 μg/ml): inhibited the growth of the bacteria
- CFU ([1]; 1 μg/ml, day 4): 50 1 × 10^3 cfu per monolayer and 60 1 × 10^3 cfu per monolayer
- CFU ([1]; 1 μg/ml, day 7): 900 1 × 10^3 cfu per monolayer and 800 1 × 10^3 cfu per monolayer
- inhibition / killing of drug susceptible bacteria (in words) ([1]; 2 μg/ml, day 4): inhibition
- CFU ([1]; 2 μg/ml, day 4): 20 1 × 10^3 cfu per monolayer
- CFU ([1]; 2 μg/ml, day 7): 40 1 × 10^3 cfu per monolayer and 50 1 × 10^3 cfu per monolayer
- inhibition / killing of drug susceptible bacteria (in words) ([1]; 4 μg/ml, day 4): killing at day 4
- CFU ([1]; 4 μg/ml, day 4): 4 1 × 10^3 cfu per monolayer and 5 1 × 10^3 cfu per monolayer
- CFU ([1]; 4 μg/ml, day 7): 1.5 1 × 10^3 cfu per monolayer and 3 1 × 10^3 cfu per monolayer
- Mortality #died/#tested ([2]; 40 mg/kg i.v., two doses (4 h and 24 h after infection), 24 hours post infection): 1/4
- Mortality #died/#tested ([2]; 40 mg/kg i.v., two doses, 30 hours post infection): 1/4
- Mortality #died/#tested ([2]; 40 mg/kg i.v., two doses, 48 hours post infection): 1/4
- Mortality #died/#tested ([2]; 40 mg/kg i.v., two doses, 72 hours post infection): 1/4
- Mortality #died/#tested ([2]; 80 mg/kg i.v., two doses (4 h and 24 h after infection), 24 hours post infection): 0/6
- Mortality #died/#tested ([2]; 80 mg/kg i.v., two doses, 30 hours post infection): 0/6
- Mortality #died/#tested ([2]; 80 mg/kg i.v., two doses, 48 hours post infection): 0/6
- Mortality #died/#tested ([2]; 80 mg/kg i.v., two doses, 72 hours post infection): 0/6
- Mortality #died/#tested ([2]; 120 mg/kg i.v., two doses (4 h and 24 h after infection), 24 hours post infection): 0/6
- Mortality #died/#tested ([2]; 120 mg/kg i.v., two doses, 30 hours post infection): 0/6
- Mortality #died/#tested ([2]; 120 mg/kg i.v., two doses, 48 hours post infection): 0/6
- Mortality #died/#tested ([2]; 120 mg/kg i.v., two doses, 72 hours post infection): 0/6
- Average plasma concentration of amikacin ([3]; 100 mg/kg i.v., 6 hours): none detected
- concentration at 5 min ([3]; in vivo, iv, 100 mg/kg): 406 µg/mL
- concentration at 0.25 h ([3]; in vivo, iv, 100 mg/kg): 106 µg/mL
- concentration at 2 h ([3]; in vivo, iv, 100 mg/kg): 65 µg/mL
- lethality (in words) [4]: will kill many of the mice injected
- Lung log cfu/gram ([5]; 40 mg/kg i.v. daily for 5 days): 6.16 log
- Lung log cfu/gram ([5]; 80 mg/kg i.v. daily for 5 days): 6.11 log
- Lung log cfu/gram ([5]; 120 mg/kg i.v. daily for 5 days): 6.00 log
